What was measured:
[1] = test system: NCI-60 panel of cancer cell lines; assay: NCI-60 one dose screen, whole panel; assay type: cell-based; conditions: 10 μM, 48 hours
Method: One dose and five dose cytotoxicity screening was performed by the NCI-60 screening program of the National Institutes of Health (NIH), which is known in the art and available from the NIH. The NCI-60 panel is a collection of cancer cell lines, from various diverse tumors, which was developed in the 1980s by the National Cancer Institute to aid screening efforts for cytotoxic or cytostatic compounds.
In these screens, 60 cell lines, were utilized to determine the cytotoxic effect of small molecules, natural products, and other drug candidates. […]
The five dose screen was performed by creating four 10-fold dilutions of the highest concentration of the diluted 7-acetoxyroyleanone made in the same manner as the one dose screen. […] The bound stain was then dissolved in 10 mM trizma base and the absorbance was read using an automated plate reader at 515 nm. […]

[2] = test system: MDA-MB-435 (melanoma) cells; assay: NCI-60 five dose screen, MDA-MB-435; conditions: read-out: LC50; MDA-MB-435, Melanoma

SMILES: CC(=O)O[C@@H]1C[C@H]2C(C)(C)CCC[C@]2(C)C2=C1C(=O)C(C(C)C)=C(O)C2=O [7-acetoxyroyleanone]
- growth percent, average for all cell types screened [1]: −18.5%
- growth inhibition of each cell line compared to the control ([1]; minimum over all cell lines): at least 72.88%
- CC50 [2]: 5.87 µM
